# Data as given in patent US12281118B2, “Nitrogen-containing fused heterocyclic SHP2 inhibitor compound, preparation method, and use” (SHANGHAI RINGENE BIOPHARMA CO., LTD., priority 2018, dated 2025).
# Where two headings read alike, the source gives them in different places.
# Tests used:
# [1] = test system: KATO III (gastric cancer); assay: Cell proliferation inhibition, MTT; type: cell-based; conditions: Homo sapiens
# Protocol: (§1) Incubating cells such as KYSE520 (oesophageal cancer cells), H358 (lung cancer cells), Colo-205 (colorectal cancer cells), MiaPaca-2 (pancreas cancer cells), MOLM 13 (leukemia cells), NCI—H 1666 (lung cancer cells), NCI—H 508 (lung cancer), KATO III (gastric cancer), HEK 293A (normal cells), H3255 (lung cancer), H1975 (lung cancer), PC-9 (lung cancer), A549 (lung cancer), SNU16 (gastric cancer), and H1299 (lung cancer) in a 96-well plate at 100 µl/well and 20,000 cells/mL, and supplementing 10% fetal bovine serum and 1% penicillin/streptomycin sulfate. With 0.5% dimethyl sulfoxide as a blank control, treating the cells in a solution of the test compounds under 3× dilution at an initial concentration of 10 μM in eight gradients, and incubating the plate in an incubator with 5% CO2 for a certain period of time. At the end of the incubation, adding 10 μL of an MTT stock solution (5 mg/mL) to each well. Incubating the plates at 37° C. for 4 hours, and then removing the culture medium. Adding the dimethyl sulfoxide (100 μL) to each well, and then shaking well. Measuring the absorbance of a formazan product at 570 nm on a Thermo Scientific Varioskan Flash multi-mode reader. Fitting dose-response data to a three-parameter nonlinear regression model using GraphPad Prism 6.0 software to obtain IC50 values.
# [2] = test system: NCI-H 508 (lung cancer); assay: Cell proliferation inhibition, MTT; type: cell-based; conditions: Homo sapiens, NCI-H508
# Protocol: as §1
# [3] = biological target: CYP2C8 (Homo sapiens (Human), UniProt P10632); assay: biochemical; type: in vitro ADME
# Sequence of CYP2C8 (P10632 whole entry): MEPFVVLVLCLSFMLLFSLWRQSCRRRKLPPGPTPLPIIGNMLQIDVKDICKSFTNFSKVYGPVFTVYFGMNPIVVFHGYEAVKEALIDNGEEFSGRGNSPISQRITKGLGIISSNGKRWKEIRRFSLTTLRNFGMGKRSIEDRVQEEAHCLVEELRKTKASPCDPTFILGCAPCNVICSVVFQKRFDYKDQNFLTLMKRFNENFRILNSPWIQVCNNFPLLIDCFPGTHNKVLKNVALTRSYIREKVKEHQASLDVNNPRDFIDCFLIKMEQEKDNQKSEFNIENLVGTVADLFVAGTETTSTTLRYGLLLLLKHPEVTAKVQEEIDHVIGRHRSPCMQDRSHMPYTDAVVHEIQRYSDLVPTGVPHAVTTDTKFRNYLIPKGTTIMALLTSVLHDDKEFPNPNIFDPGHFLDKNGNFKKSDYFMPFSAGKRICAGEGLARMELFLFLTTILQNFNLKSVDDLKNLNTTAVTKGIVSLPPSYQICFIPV
# [4] = biological target: CYP2C19 (Homo sapiens (Human), UniProt P33261); assay: biochemical; type: in vitro ADME
# Sequence of CYP2C19 (P33261 whole entry): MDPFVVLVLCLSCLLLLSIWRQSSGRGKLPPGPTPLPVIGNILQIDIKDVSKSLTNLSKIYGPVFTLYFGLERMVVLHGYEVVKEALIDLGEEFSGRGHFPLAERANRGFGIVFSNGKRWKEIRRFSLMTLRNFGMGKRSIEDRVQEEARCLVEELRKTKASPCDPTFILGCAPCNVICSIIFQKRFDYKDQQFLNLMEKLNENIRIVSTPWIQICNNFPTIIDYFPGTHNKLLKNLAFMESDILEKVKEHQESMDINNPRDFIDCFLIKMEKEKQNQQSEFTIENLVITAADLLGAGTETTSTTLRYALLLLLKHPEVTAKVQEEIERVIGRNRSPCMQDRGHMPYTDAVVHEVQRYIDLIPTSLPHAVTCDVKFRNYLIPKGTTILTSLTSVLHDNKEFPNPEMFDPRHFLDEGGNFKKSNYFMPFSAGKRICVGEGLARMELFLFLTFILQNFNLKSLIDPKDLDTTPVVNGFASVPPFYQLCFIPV
# Protocol: (§2) Direct inhibition test (DI test): Incubating 100 μL of human liver microsomes (final concentration 0.2 mg/mL) containing NADPH (final concentration 1 mM), 10 μM of compound, a positive inhibitor cocktail (ketoconazole 10 μM, quinidine 10 μM, sulfaphenazole 100 μM, a-naphthoflavone 10 μM, and tranylcypromine 1,000 μM), a negative control (BPS containing 0.1% dimethyl sulfoxide) and a mixed probe substrate (midazolam 10 μM, testosterone 100 μM, dextromethorphan 10 μM, diclofenac 20 μM, phenacetin 100 μM, and mephenytoin 100 μM) for direct inhibition, and terminating the reaction after 20 min of the incubation. Calculating the relative enzyme activity by measuring the relative production of metabolites.
# [5] = biological target: CYP2C9 (Homo sapiens (Human), UniProt P11712); assay: biochemical; type: in vitro ADME
# Sequence of CYP2C9 (P11712 whole entry): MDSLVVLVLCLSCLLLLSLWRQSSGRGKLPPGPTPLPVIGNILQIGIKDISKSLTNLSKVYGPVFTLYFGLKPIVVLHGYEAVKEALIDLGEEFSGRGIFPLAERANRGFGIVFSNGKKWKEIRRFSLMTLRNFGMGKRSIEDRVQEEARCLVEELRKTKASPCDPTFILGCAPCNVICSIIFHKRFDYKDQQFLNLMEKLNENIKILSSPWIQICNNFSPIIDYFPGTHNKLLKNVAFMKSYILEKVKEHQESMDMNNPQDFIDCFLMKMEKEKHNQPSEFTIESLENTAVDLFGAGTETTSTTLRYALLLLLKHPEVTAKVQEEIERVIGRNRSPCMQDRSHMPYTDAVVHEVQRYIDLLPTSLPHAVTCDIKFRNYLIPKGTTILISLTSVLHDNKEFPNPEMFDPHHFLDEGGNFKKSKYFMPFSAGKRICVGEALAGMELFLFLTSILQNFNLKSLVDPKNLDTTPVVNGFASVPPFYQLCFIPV
# Protocol: as §2
# [6] = biological target: CYP2D6 (Homo sapiens (Human), UniProt P10635); assay: biochemical; type: in vitro ADME
# Sequence of CYP2D6 (P10635 whole entry): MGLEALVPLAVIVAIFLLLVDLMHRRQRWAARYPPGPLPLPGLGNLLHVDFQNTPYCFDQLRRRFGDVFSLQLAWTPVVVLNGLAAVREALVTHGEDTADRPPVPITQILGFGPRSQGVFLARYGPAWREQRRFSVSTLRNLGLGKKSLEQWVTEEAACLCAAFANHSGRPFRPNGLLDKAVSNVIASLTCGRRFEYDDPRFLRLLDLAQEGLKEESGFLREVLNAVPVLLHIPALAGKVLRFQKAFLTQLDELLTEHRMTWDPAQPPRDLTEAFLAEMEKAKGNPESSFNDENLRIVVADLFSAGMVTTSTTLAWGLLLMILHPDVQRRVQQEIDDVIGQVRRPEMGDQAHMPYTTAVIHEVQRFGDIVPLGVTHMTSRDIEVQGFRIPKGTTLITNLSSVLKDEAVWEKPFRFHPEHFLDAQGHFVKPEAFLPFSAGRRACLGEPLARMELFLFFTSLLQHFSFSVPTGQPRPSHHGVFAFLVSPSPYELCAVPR
# Protocol: as §2
# [7] = biological target: CYP3A4 (Homo sapiens (Human), UniProt P08684); assay: biochemical; type: in vitro ADME
# Sequence of CYP3A4 (P08684 whole entry): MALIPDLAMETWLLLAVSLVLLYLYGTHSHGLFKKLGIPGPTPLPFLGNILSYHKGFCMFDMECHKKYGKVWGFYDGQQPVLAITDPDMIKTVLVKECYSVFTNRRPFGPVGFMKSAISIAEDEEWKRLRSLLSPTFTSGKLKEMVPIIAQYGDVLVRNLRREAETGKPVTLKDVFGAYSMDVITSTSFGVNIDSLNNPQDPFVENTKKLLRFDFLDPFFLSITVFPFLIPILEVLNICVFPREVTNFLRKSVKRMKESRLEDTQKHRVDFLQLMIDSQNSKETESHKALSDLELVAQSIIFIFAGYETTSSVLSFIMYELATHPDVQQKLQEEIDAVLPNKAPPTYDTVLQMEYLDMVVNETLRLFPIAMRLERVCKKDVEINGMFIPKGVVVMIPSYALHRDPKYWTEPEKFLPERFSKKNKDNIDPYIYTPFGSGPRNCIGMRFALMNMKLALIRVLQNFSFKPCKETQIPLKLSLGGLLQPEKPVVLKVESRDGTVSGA
# Protocol: as §2
# [8] = In vivo pharmacokinetic parameters; set-up: AUC: unit not given here; conditions: plasma, po; for AUC: read-out: Area under the curve AUC; for bioavailability: read-out: Bioavailability F; for half-life: read-out: Half-life T1/2 (converted); for Cmax: read-out: Maximum plasma concentration Cmax
# Protocol: Dividing 6 SPF-grade laboratory animals into two groups, and preparing the test compound to a suitable solution or suspension; intravenously administering animals in one group, and orally administering animals in the other group. Collecting blood via jugular vein puncture at approximately 0.2 mL/time point for each sample, anticoagulating with sodium heparin, wherein the time points for blood collection is as follows: pre-dose, and 5, 15 and 30 min, and 1, 2, 4, 6, 8, and 24 h post-dose; placing the collected blood samples on ice, separating plasma by centrifugation (centrifugation conditions: 8,000 rpm, 6 min, 2-8° C.), and storing the collected plasma at −80° C. before analysis. Analyzing plasma samples using LC-MS/MS.
# Based on the plasma concentration data of the drug, pharmacokinetic parameters such as AUC0-t, AUC0-∞, MRT0-∞, Cmax, Tmax, T1/2 and Vd of a test sample, as well as mean and standard deviations thereof are calculated using a pharmacokinetic calculation software WinNonlin 5.2 noncompartmental model. In addition, the bioavailability (F) is calculated by the following formula.
# For samples with concentrations below the lower limit of quantification, samples taken before reaching Cmax should be calculated as zero for calculations of the pharmacokinetic parameter, and samples taken at sampling points after reaching Cmax should be calculated as non-quantifiable (BLQ) (specific results are shown in Table 3).
# [9] = test system: MV 4-11 tumor cell xenograft; assay: Growth inhibition of xenograft in nude mice; type: in vivo; conditions: orally, once daily, for 21 consecutive days
# Excerpt: Experimental method: 1) Culturing MV 4-11/KYSE520/NCI-H358 cells in a culture medium containing 10% fetal bovine serum. Harvesting tumor cells at an exponential growth phase, and resuspending in PBS to suitable concentrations for subcutaneous tumor inoculation in nude mice. 2) Subcutaneously inoculating 2-8×10^7 tumor cells at the right back of a mouse, and resuspending the cells in PBS and matrigel (1:1); observing tumor growth regularly, and randomizing mice for administration based on tumor size and mouse body weight when tumors grow to a mean volume of ˜120 mm^3-[…]. 3) Defining the day of tumor cell inoculation as Day 0. Prior to the start of dosing, weighing all animals and measuring the tumor volume with a vernier caliper. 3) Administering orally compound of examples (prepared with water for injection containing 1% Tween80 to a desired concentration for use) at a given dose for three consecutive weeks, and giving an equal amount of solvent animals in a solvent control group. Measuring diameters of the xenograft twice a week throughout the experiment, and weighing the mice were at the same time.
# The calculation formula of tumor volume (TV) is: TV=½×a×b^2, wherein a and b represent length and width, respectively. The relative tumor volume (RTV) is calculated based on the measured results using the formula: RTV=Vt/V0, wherein V0 is the tumor volume measured at the time of dosing in separate cages (i.e., Day 0) and Vt is the tumor volume at each measurement. The anti-tumor activity is evaluated by the following measures: 1) relative tumor proliferation rate T/C (%), which is calculated by the following formula: T/C (%)=(TRTV/CRTV)×100%, wherein TRTV: RTV of ae treatment group; CRTV: RTV of a negative control group; 2) inhibition rate of tumor volume growth GI %, which is calculated by the following formula: GI %=[1−(TVt−TV0)/(CVt−[…])]×100%, wherein TVt is the tumor volume at each measurement in the treatment group; TV0 is the tumor volume obtained at the time of dosing in separate cages in the treatment group; CVt is the tumor volume at each measurement in the control group; CV0 is the tumor volume obtained at the time of dosing in separate cages in the control group (specific data are shown in Table 4).
Compound,IC50 [1] [µM],IC50 [2] [µM],IC50 [3] [µM],IC50 [4] [µM],IC50 [5] [µM],IC50 [6] [µM],IC50 [7] [µM],"AUC ([8]; Mouse, 5 mg/kg)","bioavailability ([8]; Mouse, 5 mg/kg) [%]","half-life ([8]; Mouse, 5 mg/kg) [h]","Cmax ([8]; Mouse, 5 mg/kg) [nM]",other results
"Cc1nc(N2CCC3(CC2)Cc2ccccc2[C@H]3N)n2ccnc2c1Sc1ccnc(N)c1Cl [Example 1, (S)-1′-(8-((2-amino-3-chloropyridin-4-yl)thio)-7-methylimidazo [1,2-c]pyrimidin-5-yl)-1,3-dihydrospiro [indene-2,4′-piperidine]-1-amine]",< 1,< 0.1,> 25,> 25,> 25,> 25,> 25,5840,61,11.8,306,"AUC ([8]; Beagle Dog, 5 mg/kg): 18200; bioavailability ([8]; Beagle Dog, 5 mg/kg): 162%; half-life ([8]; Beagle Dog, 5 mg/kg): 10.9 h; Cmax ([8]; Beagle Dog, 5 mg/kg): 907 nM; bioavailability ([8]; Rat, 5 g/kg (so in the source)): 64%; half-life ([8]; Rat, 5 g/kg (so in the source)): 22.3 h; Cmax ([8]; Rat, 5 g/kg (so in the source)): 211 nM; AUC ([8]; Rat, (so in the source)): 3540; T/C ([9]; 2 mg/kg): 28%; T/C ([9]; 5 mg/kg): 3.0%"
"Nc1nccc(Sc2c(N)nc(N3CCC4(CC3)Cc3ccccc3[C@H]4N)n3ccnc23)c1Cl [Example 4, (S)-1′-(7-amino-8-((2-amino-3-chloropyridin-4-yl)thio)imidazo [1,2-c]pyrimidin-5-yl)-1,3-dihydrospiro [indene-2,4′-piperidine]-1-amine]",< 1,< 0.1,> 25,> 25,> 25,> 25,> 25,557,20,10.9,79,–
